Assay: Measurement of pKa by absorption spectrum on addition of perchloric acid
Assay type: physicochemical
Conditions: in acetonitrile, 70% perchloric acid (solvent: acetic acid) added dropwise; proton adduct at nitrogen of triazine ring
Procedure: Compound (2) was dissolved in acetonitrile to give an absorbance of 1 and to this solution, 70% perchloric acid (solvent: acetic acid) was added dropwise, thereby varying the pH. At this time, the absorption spectrum of solution was measured and based on the absorbance at λmax, the proportions of a triazine-free form and a proton adduct were calculated at each pH. From the point at which these values became equal, the pKa value was determined. Here, the triazine-free form indicates Compound (2) itself, and the proton adduct indicates a compound resulting from addition of a proton to the nitrogen atom of triazine ring of Compound (2). Compounds (21), (24), (120), (m-2), (m-3), (m-4), (m-21), (m-31), (m-20) and (m-1), and as comparative compounds, (Example A1) and (Example A2) were determined for the pKa value in the same manner. The absorption spectrum was measured using a spectrophotometer, UV-3600 (trade name), manufactured by Shimadzu Corporation, and the pH was measured using a pH meter, HM60G (trade name), manufactured by To a Denpa Kogyo. Incidentally, the absorbance is a value measured at the maximum absorption wavelength of each compound.

Question: With CCC(C)CCCCCC(CCCC(C)CC)COC(=O)c1ccc(-c2nc(-c3ccccc3O)nc(-c3ccccc3O)n2)cc1 (stereo not shown) [(24)] as the compound, how does the pKa read?
Answer: The pKa was -5.

Question: For CC(CCOC(=O)c1ccc(-c2nc(-c3ccccc3O)nc(-c3ccccc3O)n2)cc1)CC(C)(C)C (stereo not shown) [(120)], which pKa is on record?
Answer: The pKa was -5.

Question: Which pKa does the source give for Oc1ccccc1-c1nc(-c2cccc(Cl)c2)nc(-c2ccccc2O)n1 [(m-4)] here?
Answer: The pKa was -5.

Question: With CCCCC(CC)COC(=O)c1ccc(-c2nc(-c3ccccc3O)nc(-c3ccccc3O)n2)cc1 (stereo not shown) [Compound (21)] as the compound, how does the pKa read?
Answer: Its pKa is -5.

Source: patent US8623990B2, “Polyester resin composition” (FUJIFILM Corporation, priority 2010, dated 2014)
